This experiment addresses T1, CDK2/Cyclin E1 (Homo sapiens, UniProt P24941).
T1 construct: full-length human CDK2 co-expressed as N-terminal GST-tagged protein; GST (N); purchased Carna 04-165; host or cells: baculovirus expression system
Nature of the experiment: CDK2/Cyclin E1 HTRF enzyme activity assay. Type of experiment: biochemical. To be noted: 1 mM ATP; CDK2/Cyclin E1 0.25 nM; 60 minutes at room temperature. The method, then: CDK2/Cyclin E1 enzyme activity assays utilize full-length human CDK2 co-expressed as N-terminal GST-tagged protein with FLAG-Cyclin E1 in a baculovirus expression system (Carna Product Number 04-165). Assays were conducted in white 384-well polystyrene plates in a final reaction volume of 8 µL. CDK2/Cyclin E1 (0.25 nM) was incubated with the compounds of the Examples (40 nL serially diluted in DMSO) in the presence of ATP (50 µM or 1 mM) and 50 nM ULight^Tm-labeled eIF4E-binding protein 1 (THR37/46) peptide (PerkinElmer) in assay buffer (containing 50 mM HEPES pH 7.5, 1 mM EGTA, 10 mM MgCl2, 2 mM DTT, 0.05 mg/mL BSA, and 0.01% Tween 20) for 60 minutes at room temperature. The reactions were stopped by the addition of EDTA and Europium-labeled anti-phospho-4E-BP1 antibody (PerkinElmer), for a final concentration of 15 mM and 1.5 nM, respectively. HTRF signals were read after 1 hour at room temperature on a PHERAstar FS plate reader (BMG Labtech). Data was analyzed with IDBS XLFit and GraphPad Prism 5.0 software using a three or four parameter dose response curve to determine IC50 for each compound.
As usually defined, the IC50 is the concentration needed to halve the response being measured. The compound `CC(C)Oc1c(-c2cn[nH]c2)ncn2nc(NC3CCOC(C)C3)nc12` (single isomer, unassigned) [Example 6, 8-Isopropoxy-N-(2-methyltetrahydro-2H-pyran-4-yl)-7-(1H-pyrazol-4-yl)-[1,2,4]triazolo[1,5-c]pyrimidin-2-amine] came in with a half-inhibitory concentration (IC50) below 10 nM.

As to `Cc1cc(-c2c(-c3cn[nH]c3)ccn3nc(NC4CCOCC4)nc23)ccc1C#N` [Example 1, 4-(7-(1H-Pyrazol-4-yl)-2-((tetrahydro-2H-pyran-4-yl)aminoamino)-[1,2,4]triazolo[1,5-a]pyridin-8-yl)-2-methylbenzonitrile], the half-inhibitory concentration (IC50) is below 10 nM.

`Cc1cc(-c2c(-c3cn[nH]c3)ccn3nc(N[C@H]4CCOC[C@H]4F)nc23)c(F)cc1C#N` [Example 2, 5-Fluoro-4-(2-(((3S,4S)-3-fluorotetrahydro-2H-pyran-4-yl)amino)-7-(1H-pyrazol-4-yl)-[1,2,4]triazolo[1,5-a]pyridin-8-yl)-2-methylbenzonitrile] had an IC50 below 10 nM.

Take `F[C@@H]1CCN(c2c(-c3cn[nH]c3)ccn3nc(N[C@H]4CCOC[C@H]4F)nc23)C1` [Example 3, 8—((R)—3-Fluoropyrrolidin-1-yl)-N((3S,4S)-3-fluorotetrahydro-2H-pyran-4-yl)-7-(1H-pyrazol-4-yl)-[1,2,4]triazolo[1,5-α]pyridin-2-amine]: the half-maximal inhibitory concentration (IC50) was below 10 nM.

`F[C@@H]1COCC[C@@H]1Nc1nc2c(N3CCCC(F)(F)C3)c(-c3cn[nH]c3)ccn2n1` [Example 4, 8-(3,3-Difluoropiperidin-1-yl)-N-((3S,4S)-3-fluorotetrahydro-2H-pyran-4-yl)-7-(1H-pyrazol-4-yl)-[1,2,4]triazolo[1,5-α]pyridin-2-amine] returned an IC50 below 10 nM.

On to `CC(C)Oc1c(-c2cn[nH]c2)ccn2nc(N[C@H]3CCOC[C@H]3F)nc12` [Example 5, N-((3S,4S)-3-Fluorotetrahydro-2H-pyran-4-yl)-8-isopropoxy-7-(1H-pyrazol-4-yl)-[1,2,4]triazolo[1,5-α]pyridin-2-amine], for which the IC50 was below 10 nM.

With `CC(C)Oc1c(-c2cn[nH]c2)ncn2nc(N[C@H]3CCOC[C@H]3F)nc12` [Example 7, N-((3S, 4S)-3-Fluorotetrahydro-2H-pyran-4-yl)-8-isopropoxy-7-(1H-pyrazol-4-yl)-[1,2,4]triazolo[1,5-c]pyrimidin-2-amine], the IC50 was below 10 nM.

Compound `C[C@H](Oc1c(-c2cn[nH]c2)ncc2nc(N[C@H]3CCOC[C@H]3F)nn12)C(F)(F)F` [Example 8, N-((3S,4S)-3-Fluorotetrahydro-2H-pyran-4-yl)-6-(1H-pyrazol-4-yl)-5-(((5)-1,1,1-trifluoropropan-2-yl)oxy)-[1,2,4]triazolo[1,5-α]pyrazin-2-amine] returned an IC50 below 10 nM.

For the compound `C[C@@H](Oc1c(-c2cn[nH]c2)ncc2nc(N[C@H]3CCOC[C@H]3F)nn12)C(F)(F)F` [Example 9, N-((3S,4S)-3-Fluorotetrahydro-2H-pyran-4-yl)-6-(1H-pyrazol-4-yl)-5—(((R)—1,1,1-trifluoropropan-2-yl)oxy)-[1,2,4]triazolo[1,5-α]pyrazin-2-amine], the half-inhibitory concentration (IC50) was below 10 nM.

`FC(F)C1(Oc2c(-c3cn[nH]c3)ncc3nc(N[C@H]4CCOC[C@H]4F)nn23)CCC1` [Example 10, 5-(1-(Difluoromethyl)cyclobutoxy)-N-((3S,4S)-3-fluorotetrahydro-2H-pyran-4-yl)-6-(1H-pyrazol-4-yl)-[1,2,4]triazolo[1,5-α]pyrazin-2-amine] displayed a concentration for half-maximal inhibition (IC50) below 10 nM.

Compound `FC(F)C1(Oc2c(-c3cn[nH]c3)ncc3nc(NC4CCOCC4)nn23)CCC1` [Example 11, 5-(1-(Difluoromethyl)cyclobutoxy)-6-(1H-pyrazol-4-yl)-N-(tetrahydro-2H-pyran-4-yl)-[1,2,4] triazolo [1,5-α] pyrazin-2-amine] displayed an IC50 below 10 nM.

Regarding `CC(C)Oc1c(-c2cn[nH]c2)ncc2nc(N[C@H]3CCOC[C@H]3F)nn12` [Example 12, N-((3S,4S)-3-Fluorotetrahydro-2H-pyran-4-yl)-5-isopropoxy-6-(1H-pyrazol-4-yl)-[1,2,4]triazolo[1,5-α] pyrazin-2-amine], the IC50 is below 10 nM.

Compound `F[C@@H]1COCC[C@@H]1Nc1nc2cnc(-c3cn[nH]c3)c(N3CCCCC3)n2n1` [Example 13, N-((3S,4S)-3-Fluorotetrahydro-2H-pyran-4-yl)-5-(piperidin-1-yl)-6-(1H-pyrazol-4-yl)-[1,2,4]triazolo[1,5-α]pyrazin-2-amine] displayed a concentration for half-maximal inhibition (IC50) below 10 nM.

The values above are taken from patent US20230192706A1, “BICYCLIC AMINES AS CDK2 INHIBITORS” (Incyte Corporation, priority 2021, published 2023).
